Data published in patent US8063231B2, “Methods of treating alpha adrenergic mediated conditions” (Allergan, Inc., priority 2008, dated 2011).
Values joined by “and” are separate entries in the source; they are usually repeats but may differ in a detail not shown here. Equal values may be shown once.

Tests used:
wild type rats = test: Sedative effects (total activity counts) after intraperitoneal injection; assay type: in vivo, rat; details: for Sedative Effect (IP): 30 minutes post injection
Method: FIG. 2 depicts sedative effects (total activity counts) 30 minutes post intraperitoneal injection of 1 mg/kg and 10 mg/kg doses of N-(2,3-dichlorobenzyl)-4,5-dihydro-1H-imidazol-2-amine.
Data was acquired from wild type rats administered N-(2,3-dichlorobenzyl)-4,5-dihydro-1H-imidazol-2-amine intraperitoneally (IP). Rats were split into groups of six and administered 1 mg/kg or 10 mg/kg doses of N-(2,3-dichlorobenzyl)-4,5-dihydro-1H-imidazol-2-amine to assess the sedative effects of the administration of the agent.

Chung model rats = test: Tactile allodynia reversal in Chung model of chronic pain (spinal nerve ligation, von Frey hairs); assay type: in vivo, rat
Method: Various concentrations of N-(2,3-dichlorobenzyl)-4,5-dihydro-1H-imidazol-2-amine were administered orally to Chung model rats. A model in accordance with Kim and Chung 1992, Pain […], pp 355-363 (Chung model), for chronic pain (in particular peripheral neuropathy) involves the surgical ligation of the L5 (and optionally the L6) spinal nerves on one side in experimental animals. Rats recovering from the surgery gain weight and display a level of general activity similar to that of normal rats. However, these rats develop abnormalities of the foot, wherein the hindpaw is moderately everted and the toes are held together. More importantly, the hindpaw on the side affected by the surgery appears to become sensitive to pain from low-threshold mechanical stimuli, such as that producing a faint sensation of touch in a human, within about 1 week following surgery. This sensitivity to normally non-painful touch is called “tactile allodynia” and lasts for at least two months. The response includes lifting the affected hindpaw to escape from the stimulus, licking the paw and holding it in the air for many seconds. None of these responses is normally seen in the control group.
Rats are anesthetized before surgery. The surgical site is shaved and prepared either with betadine or Novacaine. Incision is made from the thoracic vertebra XIII down toward the sacrum. Muscle tissue is separated from the spinal vertebra (left side) at the L4-S2 levels. The L6 vertebra is located and the transverse process is carefully removed with a small rongeur to expose the L4-L6 spinal nerves. The L5 and L6 spinal nerves are isolated and tightly ligated with 6-0 silk thread. The same procedure is done on the right side as a control, except no ligation of the spinal nerves is performed.
A complete hemostasis is confirmed, then the wounds are sutured. A small amount of antibiotic ointment is applied to the incised area, and the rat is transferred to the recovery plastic cage under a regulated heat-temperature lamp. On the day of the experiment, at least seven days after the surgery, typically six rats per test group are administered the test drugs by intraperitoneal (i.p.) injection or oral gavage. […], the compounds are formulated in d H2O and given in a volume of 1 ml/kg body weight using an 18-gauge, 3 inch gavage needle that is slowly inserted through the esophagus into the stomach.
Tactile allodynia is measured prior to and 30 minutes after drug administration using von Frey hairs that are a series of fine hairs with incremental differences in stiffness. Rats are placed in a plastic cage with a wire mesh bottom and allowed to acclimate for approximately 30 minutes. The von Frey hairs are applied perpendicularly through the mesh to the mid-plantar region of the rats' hindpaw with sufficient force to cause slight buckling and held for 6-8 seconds. The applied force has been calculated to range from 0.41 to 15.1 grams. If the paw is sharply withdrawn, it is considered a positive response. A normal animal will not respond to stimuli in this range, but a surgically ligated paw will be withdrawn in response to a 1-2 gram hair. The 50% paw withdrawal threshold is determined using the method of Dixon, W. J., Ann. Rev. Pharmacol. Toxicol. 20:441-462 (1980) hereby incorporated by reference. The post-drug threshold is compared to the pre-drug threshold and the percent reversal of tactile sensitivity is calculated based on a normal threshold of 15.1 grams.

Clc1cccc(CNC2=NCCN2)c1Cl [N-(2,3-dichlorobenzyl)-4,5-dihydro-1H-imidazol-2-amine]
Sedative Effect (IP) (wild type rats; 1 mg/kg IP): No significant effect
Sedative effect (in words) (wild type rats; 10 mg/kg IP): significant sedative effect
Sedative Effect (IP) (wild type rats; 10 mg/kg IP): 23% sedating
Peak Allodynia Reversal (Oral, 30 min.) (Chung model rats; 30 μg/kg oral): 28% and 28% +/− 9.5%
Peak Allodynia Reversal (Oral, 30 min.) (Chung model rats; 100 μg/kg oral): 68% +/− 12.7%
Peak Allodynia Reversal (Oral, 30 min.) (Chung model rats; 300 μg/kg oral): 84% +/− 7.5%
Time at which analgesic effect was seen (peak percent allodynia reversal) (Chung model rats; single oral dose, FIG. 1): about 30 minutes
Time of decrease of allodynia reversal to baseline (Chung model rats; single oral dose, FIG. 1): about 120 minutes
